Reference: article PMC8615215, “Structural and Biochemical Characterization of Thioredoxin-2 from Deinococcus radiodurans” (Antioxidants, 2021)

Biological target: T1, DrTrxR (Deinococcus radiodurans, UniProt Q9RSY7)
T1 construct: gene DR_1982; residues 2-325, non-cleavable N-terminal His6 tag (MHHHHHH), pET-22b, expressed in E. coli BL21(DE3), Ni-NTA and size exclusion
Test: NADPH consumption at […] nm, insulin reduction coupled through DrTrx1 or DrTrx2
Assay type: biochemical
Conditions: 0.1 mM NADPH, 0.1 uM DrTrxR, 0.1 uM DrTrx1 or 0.5 uM DrTrx2, bovine insulin, 50 mM Tris-HCl pH 7.4, room temperature

T1 sequence (Q9RSY7 entry or part of it): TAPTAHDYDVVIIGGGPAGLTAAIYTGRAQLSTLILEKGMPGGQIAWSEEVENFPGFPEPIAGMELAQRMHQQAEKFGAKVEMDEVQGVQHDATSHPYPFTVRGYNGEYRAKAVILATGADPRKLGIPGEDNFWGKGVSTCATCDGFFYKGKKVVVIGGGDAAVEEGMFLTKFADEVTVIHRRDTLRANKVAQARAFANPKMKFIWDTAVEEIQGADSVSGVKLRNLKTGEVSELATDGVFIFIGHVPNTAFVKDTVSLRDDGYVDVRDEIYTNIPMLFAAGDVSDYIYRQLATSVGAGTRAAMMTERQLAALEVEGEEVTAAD

With `NC(=O)C1=CN([C@@H]2O[C@H](COP(=O)(O)OP(=O)(O)OC[C@H]3O[C@@H](n4cnc5c(N)ncnc54)[C@H](OP(=O)(O)O)[C@@H]3O)[C@@H](O)[C@H]2O)C=CC1` [NADPH] the “NADPH consumption at 340 nm, insulin reduction coupled through DrTrx1 or DrTrx2” value was “In the presence of DrTrxR/NADPH, both DrTrx1 and DrTrx2 caused a notable decrease”.
